# Results published in patent US10905757B2, “Cross-reactive T cell epitopes of HIV, SIV, and FIV for vaccines in humans and cats” (priority 2012, dated 2021).
# Entries after “also recorded” stand apart in the source; their conditions may differ. Ends that are not written are not given here.
# Assays:
# [1] = system: T cells from HIV− subjects; experiment: CFSE-proliferation, CD8+ / CD4+ T cells from HIV− control subjects; assay type: cell-based, human
# Experimental: Flow cytometry (FACS) for carboxyfluoresein diacetate succinimide ester (CFSE)-proliferation and intracellular cytotoxin staining (ICS). The CFSE-proliferation analysis was performed on PBMC according to the manufacturer's protocol (Invitrogen, Carlsbad, Calif.) and processed as previously described (Lichterfeld et al. (2004)). Modifications consisted of using 2.0-5.0×10^5 CFSE-labeled cells stimulated for 5 days (37° C., 5% CO^2) with 30 μg/well of total peptides in a pool (15 μg/well for individual peptide, Table 10) or 5 μg/mL PHA in AIM V medium containing 25 μg/mL of gentamycin and 10% heat-inactivated human serum. Subsequently these cells were harvested and labeled with the LIVE/DEAD fixable yellow dye (Invitrogen) and then treated 5 min with anti-CD16/CD32 antibody (Biolegend, San Diego, Calif.) for blocking non-specific binding before phenotype-specific antibodies. The following antibodies were used for the CFSE-proliferation analysis: anti-CD4 APC, anti-CD3 APC-H7, and anti-CD8 Pacific Blue (BD Biosciences, San Jose, Calif.).
# (§1) In both analyses, 1.0-2.0×10^4 cells were fixed in phosphate-buffered saline (PBS) containing 2% paraformaldehyde and analyzed on BD LSRII using […] Software (BD Biosciences), with a positive threshold of 3% CFSE^low for CFSE-proliferation and 1% T cells expressing cytotoxin for ICS. The final value for each subject was derived after subtraction of the subject's medium control and the average value of peptide-stimulated cells from uninfected control subjects.
# (§2) Flow cytometry (FACS) for measuring CFSE-proliferation and intracellular cytokine staining (ICS). Carboxyfluorescein diacetate succinimide ester (CFSE)-proliferation analysis was performed according to the manufacturer's protocol (Invitrogen) and processed as previously described (Lichterfeld et al. 2004) using the following modification: 2.5-5.0×10^5 CFSE-labeled PBMC stimulated for 4-5 days (37° C., 5% CO2) with 15-30 μg of peptides in culture media (AIM V medium, 25 μg/mL gentamycin, and 10% heat-inactivated fetal bovine serum). The ICS analysis was performed as previously described (Horton et al. 2007; Pattacini et al. 2012).
# (§3) The antibodies used for the proliferation analysis consisted of anti-CD4 allophycocyanin (APC) anti-CD3 APC-H7, and anti-CD8 Pacific Blue, and those for ICS were anti-CD3 APC-H7, anti-CD4 BD Horizon V450, anti-CD8 FITC, anti-granzyme B (GrzB) Alexa 700, anti-granzyme A (GrzA) PE (BD Biosciences, Cat #555349, 560176, 558207, 560345, 555366, 560213, 558904), and anti-perforin PerCP (Abcam, Cat #ab86319). Both analyses were performed with BD LSRII and […]™ Software (BD Biosciences), using a positive threshold of >1% CFSE^low for CFSE-proliferation except for ICS studies with threshold of >0.1% T cells expressing cytotoxin. The final value for each subject was derived after subtracting the result of each HIV^+ subject with the media control followed by subtraction with the average response of the media-control subtracted HIV^− subjects.
# [2] = system: CD4+ T cells from HIV+ subjects; experiment: Intracellular cytotoxin staining (ICS), CD4+ T cells from HIV+ subjects; assay type: cell-based, human; parameters: key to CD4^+ T-cell cytotoxins (4C): positive (+); negative (−) response; inhibitory (↓); not done (n); details: for cytotoxin expression in CD4+ T cells (in words): ST/ART− subjects; for CD4^+ T-cell cytotoxins (4C): HIV^+ subjects compared to HIV^− control group
# Experimental: (§4) Briefly, 1×10^6PBMCs (freshly isolated) are stimulated with 20 μg of peptides for 6 hours in a total volume of 200 μL in a 96-well plate in presence of Golgi transport inhibitor (37° C., 5% CO2). The cells are processed as previously described (Horton et al. (2007)). Cells were stained with the LIVE/DEAD® fixable yellow dye (Invitrogen, Eugene, Oreg.). The monoclonal antibodies fluorochome-conjugated to human cytokines used are: APC-H7 to CD3 (clone SK7); BD Horizon V450 to CD4 (clone RPA-T4); Qdot to CD8 (clone 3B5); PE-cy7 to IFN-γ (clone 4S.B3); APC to IL-2 (clone MQ1-17H12) PerCP to perforin (clone B-D48); Alexa F1.700 to granzyme-B (clone GB11) and PE to granzyme-A (clone CB9). The flow cytometry data is collected using BD LSRII and analyzed with the FACS DIVA software.
# (§5) The ICS analysis (Horton et al. (2007)) involved stimulating 0.5-1.0×10^6 freshly isolated PBMC for 6 h with the same peptide stimulant and culture conditions as the proliferation analysis in the presence of 1 μg/mL of Golgi transport inhibitor and monensin followed by labeling with LIVE/DEAD fixable yellow dye and then treatment with anti-CD16/CD32 antibody and T-cell phenotypic antibodies. The cells were subsequently fixed and permeabilized with Cytofix/Cytoperm solution (BD Biosciences) before reaction with anti-cytotoxin antibodies. The antibodies consisted of anti-CD3 APC-H7, anti-CD4 BD Horizon V450, and anti-CD8 FITC followed by anti-GrzB Alexa 700 and anti-GrzA PE (all from BD Biosciences), and anti-perforin PerCP (Abcam, Boston, Mass.).
# as §1, §2, §3
# [3] = system: CD4+ or CD8+ T cells from HIV+ subjects; experiment: Intracellular cytotoxin staining (ICS), CD4+ or CD8+ T cells from HIV+ responders; assay type: cell-based, human; details: for Cytotoxins: responders to Fp9 or Fp14 peptide pools; for cytotoxin and CD107a expression in CD4+ and CD8+ T cells (in words): p24 peptides
# Experimental: Briefly, 1×10^6PBMCs (freshly isolated) are stimulated with 20 μg of peptides for 6 hours in a total volume of 200 μL in a 96-well plate in presence of Golgi transport inhibitor (37° C., 5% CO2). […] Cells were stained with the LIVE/DEAD® fixable yellow dye (Invitrogen, Eugene, Oreg.). […] The flow cytometry data is collected using BD LSRII and analyzed with the FACS DIVA software.
# The cells were subsequently fixed and permeabilized with Cytofix/Cytoperm solution (BD Biosciences) before reaction with anti-cytotoxin antibodies. The antibodies consisted of anti-CD3 APC-H7, anti-CD4 BD Horizon V450, and anti-CD8 FITC followed by anti-GrzB Alexa 700 and anti-GrzA PE (all from BD Biosciences), and anti-perforin PerCP (Abcam, Boston, Mass.).
# as §1
# Flow cytometry (FACS) for measuring CFSE-proliferation and intracellular cytokine staining (ICS).
# Both analyses were performed with BD LSRII and […]™ Software (BD Biosciences), using a positive threshold of >1% CFSE^low for CFSE-proliferation except for ICS studies with threshold of >0.1% T cells expressing cytotoxin.
# [4] = system: FIV infection of naïve cat PBMC; experiment: In vitro FIV enhancing/inhibitory (E/I) assay in PBMC from naïve SPF cats (RT titer); assay type: cell-based; details: for effect on in vitro FIV infection: PBMC from naïve cats
# Experimental: FIG. 35. FIV-enhancing versus inhibitory epitopes on peptides and MAPs used in pilot MAP Study. […] Abbreviation: MAP1 plus MAP2 mix (MAP1+2).
# FIG. 36A and 36B. FIV/HIV-1 enhancing versus inhibitory epitopes. […] Four epitope peptides were tested in an in vivo efficacy study with prototype vaccine prime and MAP boosts against pathogenic FIV challenge (see MAP section).
# To test the possibility that Fp4-3 peptide may be enhancing FIV infection, we performed an in vitro FIV enhancing/inhibitory analysis with all MAP peptides and immunogens. […]. Since MAP2 consisted of peptides FRT3-3 and FRT3-4 with a natural overlap (FIG. 34), such overlap may have blocked the enhancing activity of peptide FRT3-3 while allowing the inhibitory activity of peptide FRT3-4. […] Moreover, none of the MAP vaccinated cats had early detection or enhancement in viral load compared to the control cats. Perhaps, the strong immunity generated by the MAP2 has blocked the enhancing activity of the MAP1 when boosted together (Group 1, Table 3). To test this possibility, in vitro study is currently undergoing to evaluate whether MAP2 can block FIV enhancing activity of MAP1. Furthermore, more cats will be vaccinated with MAP 1b and MAP2 to determine the levels of cytotoxins generated to peptides Fp14-1, FRT3-3 and FRT3-4. Since these peptides have induced CTL-associated cytotoxin expression in T cells from HIV^+ subjects (FIGS. 31A-31B; FIG. 5 in (Sanou et al. 2013)), these EC peptides may also mediate their in vivo effects by inducing anti-FIV specific CTL activity.
# However, only peptide Fp4-3 correlated with the in vitro enhancement induced by MAP1. Since the in vitro E/I assay uses PBMC from naïve specific pathogen free (SPF) cats, it is unlikely that the in vitro stimulation of anti-FIV CTLs occurred in the culture and eliminated the infected cells. More likely, these enhancing or inhibitory peptides induced cytokines (enhancement: IFNγ, TNFα, GM-CSF; inhibition: IFNα, IL10), chemokines (inhibition: MIP1α, MIP1β, SDF-1, RANTES), or cellular restriction factors (inhibition: Trim5α, APOBEC3g) that either enhanced or inhibited FIV/HIV-1 infection. […] IFNγ is produced during inflammatory responses to HIV-1 infection (Ipp and Zemlin 2013). Thus, high levels of antiviral cellular immune responses are needed while minimizing both non-specific and viral-specific activation of CD4^+ T cells which can enhance viral replication (Lane 2010). Removal of the enhancing epitopes on FIV and HIV-1 immunogens will be critical to produce an effective HIV-1 vaccine. To accomplish this goal, we will design a vaccine based on antiviral epitopes directed at inducing viral-specific CD4^+ CTLs, CD8^+ CTLs and polyfunctional T cells, and identifying viral enhancing epitopes to remove from vaccine candidates.
# [5] = system: CD8+ T cells from HIV+ subjects; experiment: Intracellular cytotoxin staining (ICS: perforin, GrzA, GrzB, CD107a), CD8+ T cells from HIV+ subjects; assay type: cell-based, human; parameters: key to CD8^+ T-cell cytotoxins (8C): positive (+); negative (−) response; inhibitory (↓); not done (n); details: for HIV+ subjects whose CD8+ T cells responded with one or more cytotoxins: five HIV+ subjects, individual 13-15mer peptides; for CD8^+ T-cell cytotoxins (8C): HIV^+ subjects compared to HIV^− control group
# Experimental: as §4, §5, §1, §2, §3
substance,measurement,setting,value
RMQCRAWYL [Fp9-3c],T-cell proliferation in HIV− subjects (in words),[1],not
same,cytotoxin expression in CD4+ T cells (in words),[2],very little cytotoxin expression
same,Cytotoxins,[3],Extremely Low Cytotoxins
"concanavalin A [ConA, reference compound]",average RT titer,"[4]; FIV-enhancing mitogen control, 1:10000 dilution","54,634 cpm/mL"
"DQEQNTAEVKLYLK [MAP1b, palmitated multiple antigenic peptide with FIV p24-peptide Fp14-1 alone]",effect on in vitro FIV infection,[4],no significant in vitro effect
FAPARMQCRAWYLEA [Fp9-3],T-cell proliferation in HIV− subjects (in words),[1],proliferated
same,cytotoxin expression / CTL-associated activity in CD8+ T cells (in words),[5],more cytotoxins; also recorded: highest frequency of responders
same,HIV+ subjects whose CD8+ T cells responded with one or more cytotoxins,[5],up to four
same,cytotoxin expression in CD4+ T cells (in words),[2],very little cytotoxin expression
same,Cytotoxins,[3],High Cytotoxins (The cytotoxin result is considered high when four or five subjects express one or more cytotoxins in the CD8^+ T cells)
RAEQASQEVKNWMTE [Hp15-1],T-cell proliferation in HIV− subjects (in words),[1],not
same,cytotoxin expression / CTL-associated activity in CD8+ T cells (in words),[5],robust cytotoxin levels and responder frequencies
same,CD8^+ T-cell cytotoxins (8C),[5],+
same,HIV+ subjects whose CD8+ T cells responded with one or more cytotoxins,[5],five
same,CD4^+ T-cell cytotoxins (4C),[2],+
same,Cytotoxins,[3],High Cytotoxins (The cytotoxin result is considered high when four or five subjects express one or more cytotoxins in the CD8^+ T cells)
ARMQCRAWY [Fp9-3d],T-cell proliferation in HIV− subjects (in words),[1],not
same,cytotoxin expression / CTL-associated activity in CD8+ T cells (in words),[5],more cytotoxins
same,cytotoxin expression in CD4+ T cells (in words),[2],very little cytotoxin expression
same,Cytotoxins,[3],Moderate Cytotoxins (only CD8)
VKNWMTETL [Hp15-2/3a],T-cell proliferation in HIV− subjects (in words),[1],did not stimulate
same,cytotoxin and CD107a expression in CD4+ and CD8+ T cells (in words),[3],high cytotoxin and CD107a expression; also recorded: induced expression in both
KLYLKQSLSIANA [Fp14-4],cytotoxin expression / CTL-associated activity in CD8+ T cells (in words),[5],highest frequency and levels
same,CD8^+ T-cell cytotoxins (8C),[5],+
same,HIV+ subjects whose CD8+ T cells responded with one or more cytotoxins,[5],five
same,CD4^+ T-cell cytotoxins (4C),[2],+
same,cytotoxin and CD107a expression in CD4+ and CD8+ T cells (in words),[3],high frequency of cytotoxin expression
DQEQNTAEVKLYLK [Fp14-1],CD8^+ T-cell cytotoxins (8C),[5],+
same,CD4^+ T-cell cytotoxins (4C),[2],+
same,Cytotoxins,[3],High Cytototoxins (The cytotoxin result is considered high when four or five subjects express one or more cytotoxins in the CD8^+ T cells)
VKNWMTETLLVQNAN [Hp15-3],T-cell proliferation in HIV− subjects (in words),[1],inducers
same,CD8^+ T-cell cytotoxins (8C),[5],+
same,CD4^+ T-cell cytotoxins (4C),[2],+
same,cytotoxin and CD107a expression in CD4+ and CD8+ T cells (in words),[3],high levels and frequency of cytotoxin responses
KKKSGKWRLLIDFRVLNKL [MAP2],effect on in vitro FIV infection,[4],significantly inhibited; also recorded: inhibition
